In brackets after ≈: the same amount, converted by molar mass.
Tests used:
[1] = Antioxidant activity assessed as DPPH free radical scavenging activity incubated for 30 mins in dark condition by spectrophotometric method; assay type: physicochemical
[2] = Cytotoxicity against HEK293T cells assessed as inhibition of cell viability at 25 uM after 48 hrs by MTT assay relative to control; assay type: cell-based, HEK-293T; settings: human, read-out: INH
[3] = Cytotoxicity against human PC3 cells assessed as inhibition of cell viability at 25 uM after 48 hrs by MTT assay relative to control; assay type: functional; settings: PC-3, 48 h
A549 = assay: Cytotoxicity against human A549 cells assessed as inhibition of cell viability at 25 uM after 48 hrs by MTT assay relative to control; assay type: functional; settings: A549, 48 h
[4] = Cytotoxicity against human PC3 cells assessed as inhibition of cell viability after 48 hrs by MTT assay; assay type: functional, cell-based; settings: PC-3, 48 h
[5] = Cytotoxicity against HEK293T cells assessed as inhibition of cell viability after 48 hrs by MTT assay; assay type: cell-based; settings: Homo sapiens, HEK-293T

Row | Structure (SMILES) | IC50 [1] [µg/mL] | cytotoxicity at 48 h, 25 µM [2] [%] | inhibition at 25 µM [3] [%] | inhibition at 25 µM (A549) [%] | IC50 [4] [nM] | IC50 [5] [nM]
1 | COc1c(C(=O)O)c(C)nn1-c1ccccc1 | 16.27 (≈ 70.1 µM) | 12.1 | 3.19 | 22.1 | – | –
2 | COc1c(-c2ccccc2)c(C)nn1-c1ccccc1 | 32.2 (≈ 122 µM) | 28.2 | 16.2 | 65.7 | – | –
3 | COc1c(C(=O)NCc2ccccc2)c(C)nn1-c1ccccc1 | 23.63 (≈ 73.5 µM) | 22.2 | 8.71 | 46.7 | – | –
4 | COc1ccc(-c2c(C)nn(-c3ccccc3)c2OC)cc1 | 24.98 (≈ 84.9 µM) | 46.3 | 24.3 | 70.7 | – | –
5 | COCc1ccccc1-c1c(C)nn(-c2ccccc2)c1OC | 20.05 (≈ 65 µM) | 56.5 | 36 | 80.5 | – | –
6 | O=C1O[C@H]([C@@H](O)CO)C(O)=C1O [ASCORBIC ACID] | 8.09 (≈ 45.9 µM) | – | – | – | – | –
7 | COc1c(C(=O)NCc2ccc(Cl)cc2)c(C)nn1-c1ccccc1 | 16.07 (≈ 45.2 µM) | 49.4 | 45.8 | 87 | – | –
8 | CC1=NN(c2ccccc2)C(=O)C1 [EDARAVONE] | 54.4 (≈ 312 µM) | 2.4 | 1.43 | 19.2 | – | –
9 | COc1ccc(-c2c(C)nn(-c3ccccc3)c2OC)c(OC)c1 | 38.99 (≈ 120 µM) | 48.1 | 33 | 74.7 | – | –
10 | COc1cc(C)nn1-c1ccccc1 | 49.18 (≈ 261 µM) | 23 | 5.91 | 55.8 | – | –
11 | COc1c(Br)c(C)nn1-c1ccccc1 | 36.96 (≈ 138 µM) | 5.96 | 6.38 | 30.8 | – | –
12 | COc1c(-c2ccc3ccccc3c2)c(C)nn1-c1ccccc1 | 53.56 (≈ 170 µM) | 53.6 | 27.6 | 71 | – | –
13 | COc1cccc2c1C(=O)c1c(O)c3c(c(O)c1C2=O)C[C@@](O)(C(=O)CO)C[C@@H]3O[C@H]1C[C@H](N)[C@H](O)[C@H](C)O1 [DOXORUBICIN] | – | – | – | – | 2100 | 1200
14 | COc1c(-c2ccsc2)c(C)nn1-c1ccccc1 | 30.08 (≈ 111 µM) | 22.2 | 36.6 | 40 | – | –
15 | COc1c(-c2ccc(C)cc2)c(C)nn1-c1ccccc1 | 18.6 (≈ 66.8 µM) | 19.7 | 18.5 | 44 | – | –
16 | COc1c(-c2ccc(F)cc2)c(C)nn1-c1ccccc1 | 35.97 (≈ 127 µM) | 40.9 | 46.3 | 63.9 | – | –
17 | COc1c(-c2csc3ccccc23)c(C)nn1-c1ccccc1 | 50.67 (≈ 158 µM) | 55 | 32.4 | 73.5 | – | –
18 | COc1ccc(CNC(=O)c2c(C)nn(-c3ccccc3)c2OC)cc1 | 28.42 (≈ 80.9 µM) | 44.3 | 34.6 | 60.9 | – | –
19 | COc1c(-c2ccc(C#N)cc2)c(C)nn1-c1ccccc1 | 41.98 (≈ 145 µM) | 57.8 | 30.2 | 54.7 | – | –
20 | COc1c(C(=O)NC(C)c2ccccc2)c(C)nn1-c1ccccc1 (stereo not drawn) | 26.98 (≈ 80.4 µM) | 31.8 | 29.7 | 52.7 | – | –
21 | COc1c(-c2cccc(C)c2)c(C)nn1-c1ccccc1 | 26.4 (≈ 94.8 µM) | 70.5 | 59.3 | 85.9 | – | –
22 | COc1c(-c2ccc(O)cc2)c(C)nn1-c1ccccc1 | 37.03 (≈ 132 µM) | 5.58 | 4.9 | 55.9 | – | –

Reference: ChEMBL document CHEMBL3792344, “Synthesis, molecular properties prediction and anticancer, antioxidant evaluation of new edaravone derivatives” (Bioorg Med Chem Lett, 2016)
